# Values of other authors as cited in US20070190095A1, “Coffee and its derivatives as an animal repellent composition and its use in a molluscicide bait” (priority 2006, published 2007).
# System: snails
# Conditions: 2% solution of caffeine in water sprayed on coconut husk-chip material in which orchids are grown
smiles,measurement,value
"Cn1c(=O)c2c(ncn2C)n(C)c1=O [caffeine, Caffeine]",snails killed,95%
